# Values joined by “and” are separate entries in the source; they are usually repeats but may differ in a detail not shown here. Equal entries are not always repeated.
# Tests used:
# P-gp [1] = biological target: T1, P-gp (Homo sapiens, UniProt P08183); test: ATPase assay with P-gp-expressing membrane vesicles (SB-MDR1 […] ATPase Kit); type: biochemical
# Description: The SB-MDR1 […] ATPase Kit, including P-gp-expressing membrane vesicles, was purchased from SOLVO Biotechnology (distributed by KAC Co., Ltd., Kyoto, Japan). This assay kit measures the interaction of test drugs with P-gp. ATPase assay was conducted according to the manufacturer’s instructions and a previous report. Inorganic phosphate liberated by ATP hydrolysis was detected by colorimetric reaction. The optical density (OD) was measured at 590 nm with a microplate reader, Sunrise™ Rainbow (TECAN, Kanagawa, Japan).
# P-gp [2] = biological target: T1, P-gp; test: Efflux rate assay using P-gp-overexpressing LLC-GA5-CoL150 cells; type: in vitro ADME; parameters: host or cells: LLC-GA5-CoL150 (derivative of LLC-PK1 kidney epithelial cells)
# Description: Efflux assay with LLC-GA5-CoL150 cells was performed as previously described, with some modifications. […] The cells were incubated for 30 min at 4°C, washed twice with ice-cold D-PBS(-), and further incubated in Opti-MEM® for 10 min at 37°C. The cells were then washed three times with ice-cold D-PBS(-), dried, and lysed by adding 200 μL of 0.1 N NaOH solution. […] The efflux rate was calculated according to the following formula.
# Effluxrate(pmol/min/mgprotein)={Initialuptakeofpimozide(pmol/mgprotein)−Residualamountofpimozideafter10minincubation(pmol/mgprotein)}/10(min)
# Protein was determined colorimetrically using DCTM Protein Assay (BIO-RAD, Hercules, CA), based on absorbance measurement at 700 nm with a microplate reader, Sunrise Rainbow RC (Tecan, Kanagawa, Japan). An aliquot of cell lysate was mixed with 300 μL of ethyl acetate for 10 min in the cold, then 100 μL of the organic phase was taken and evaporated. The residue was dissolved in 300 μL of mobile phase. All samples were applied to MultiScreen® Solvent Filter Plates 0.45 μm Low-Binding Hydrophilic PTFE (Merck, Ireland) and centrifuged at 3,500 rpm for 20 min at 4°C.
# To estimate the kinetic parameters of carrier-mediated transport in the efflux assays, the transport rate (J) was fitted to the following Eq (1), containing saturable and nonsaturable-linear terms, by using the nonlinear least-squares regression analysis program, MULTI, as previously reported. J=Jmax×[S]/(Kt+[S])+kd×[S] (1) Where Jmax is the maximum transport rate for the carrier-mediated transport, [S] is the substrate concentration, Kt is the half-saturation concentration, and kd is the first-order rate constant.
# [3] = Bidirectional assay across Caco-2 cell monolayers; details: human
# Description: Caco-2 cells (RRID:CVCL_0025), a human colon epithelial cancer cell line frequently used as an in vitro intestinal model, were purchased from the American Type Culture Collection (Rockville, MD, USA). […] The receiver side contained transport medium.
# [4] = in combination with sertraline; cited from earlier work
# [5] = pimozide 0.01 to 100 μM, mean ± S.D.
# T1 sequence (P08183 whole entry): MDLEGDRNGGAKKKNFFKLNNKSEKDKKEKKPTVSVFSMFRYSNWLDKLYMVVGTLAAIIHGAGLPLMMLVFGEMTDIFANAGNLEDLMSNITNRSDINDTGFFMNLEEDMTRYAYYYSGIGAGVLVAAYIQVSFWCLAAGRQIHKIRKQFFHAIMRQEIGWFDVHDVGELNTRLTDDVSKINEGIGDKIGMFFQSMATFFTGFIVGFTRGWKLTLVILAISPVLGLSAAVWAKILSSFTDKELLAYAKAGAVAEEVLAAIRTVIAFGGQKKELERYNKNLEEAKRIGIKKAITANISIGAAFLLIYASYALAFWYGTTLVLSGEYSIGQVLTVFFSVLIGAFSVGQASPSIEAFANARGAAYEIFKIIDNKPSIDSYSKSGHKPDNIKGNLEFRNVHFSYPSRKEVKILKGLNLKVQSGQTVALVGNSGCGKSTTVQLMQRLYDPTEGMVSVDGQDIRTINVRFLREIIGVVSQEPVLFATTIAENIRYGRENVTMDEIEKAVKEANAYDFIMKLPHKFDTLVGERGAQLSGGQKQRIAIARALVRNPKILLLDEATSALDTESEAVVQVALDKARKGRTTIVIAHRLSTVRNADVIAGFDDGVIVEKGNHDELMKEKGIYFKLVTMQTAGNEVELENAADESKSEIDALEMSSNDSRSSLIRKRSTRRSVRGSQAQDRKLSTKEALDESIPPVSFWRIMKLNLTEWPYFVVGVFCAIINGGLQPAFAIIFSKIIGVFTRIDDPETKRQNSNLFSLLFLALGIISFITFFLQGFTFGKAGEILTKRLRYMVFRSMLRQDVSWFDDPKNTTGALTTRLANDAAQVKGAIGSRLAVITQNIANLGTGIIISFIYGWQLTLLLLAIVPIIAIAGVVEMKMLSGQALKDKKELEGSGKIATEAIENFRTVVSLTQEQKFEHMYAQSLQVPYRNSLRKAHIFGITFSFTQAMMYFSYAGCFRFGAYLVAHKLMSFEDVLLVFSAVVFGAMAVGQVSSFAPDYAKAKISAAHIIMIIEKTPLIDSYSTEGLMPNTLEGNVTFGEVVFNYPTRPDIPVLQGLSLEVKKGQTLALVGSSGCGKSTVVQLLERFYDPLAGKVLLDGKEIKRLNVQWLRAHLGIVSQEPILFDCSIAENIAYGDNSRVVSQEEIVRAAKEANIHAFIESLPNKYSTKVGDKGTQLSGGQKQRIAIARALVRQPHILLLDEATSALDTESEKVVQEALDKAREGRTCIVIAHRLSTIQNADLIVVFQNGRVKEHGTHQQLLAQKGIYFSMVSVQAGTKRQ
smiles,measurement,setting,value
O=c1[nH]c2ccccc2n1C1CCN(CCCC(c2ccc(F)cc2)c2ccc(F)cc2)CC1 [Pimozide],P-gp substrate/inhibitor classification from ATPase assay,"P-gp [1]; ATPase activity increased concentration-dependently, reduced in the high concentration range",both a P-gp substrate and an inhibitor
same,pimozide concentration over which ATPase activity decreased,"P-gp [1]; concentration range 0.04 to 100 μM, concentration-dependent elevation at lower concentrations",about 10 μM
same,Jmax/Kt (affinity for the transport carrier(s)),P-gp [2],8.0 μL/min/mg protein
same,Jmax (maximum transport rate for the carrier-mediated transport),P-gp [2]; [5],84.9 ± 8.9 pmol/min/mg protein
same,Kt (half-saturation concentration),P-gp [2]; [5],10.6 ± 4.7 µM and 10.6 µM
same,"Papp A→B at 120 min, 10 μM",[3],1.64 ± 0.14 ×10⁻⁶ cm/s
same,"Papp B→A at 120 min, 10 μM",[3],0.35 ± 0.01 ×10⁻⁶ cm/s
same,change of blood half-life of pimozide,[4],without any significant change
same,increase of AUC of pimozide,[4],37%
same,increase of Cmax of pimozide,[4],35%
